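The compound was tested at five concentrations on cells cultured in 96-well plates, with a 48-hour exposure period. GI50 marks 50% less growth. TGI: concentration producing complete growth inhibition.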
Key:
Assay in all cases: growth of human tumour cells (NCI), 48 h
[1] = tested on: CCRF-CEM leukemia
[2] = tested on: SN12C renal
[3] = tested on: TK-10 renal
[4] = tested on: K-562 leukemia
[5] = tested on: HOP-92 NSCLC
[6] = tested on: EKVX NSCLC
[7] = tested on: MOLT-4 leukemia
[8] = tested on: SF-539 CNS
[9] = tested on: PC-3 prostate
[10] = tested on: BT-549 breast
[11] = tested on: HCT-116 colon
[12] = tested on: HCT-15 colon
[13] = tested on: HL-60(TB) leukemia
[14] = tested on: SK-MEL-2 melanoma
[15] = tested on: KM12 colon
[16] = tested on: SNB-19 CNS
[17] = tested on: NCI-H23 lung
[18] = tested on: MALME-3M melanoma
[19] = tested on: SK-MEL-5 melanoma
[20] = tested on: M14 melanoma
[21] = tested on: SK-OV-3 ovarian
[22] = tested on: T-47D breast
[23] = tested on: SF-268 CNS
[24] = tested on: RXF 393 renal
[25] = tested on: A498 renal
[26] = tested on: OVCAR-5 ovarian
[27] = tested on: SW-620 colon
[28] = tested on: SK-MEL-28 melanoma
[29] = tested on: UO-31 renal
[30] = tested on: NCI-H460 lung
[31] = tested on: UACC-257 melanoma
[32] = tested on: ACHN renal
[33] = tested on: CAKI-1 renal
[34] = tested on: HOP-62 NSCLC
[35] = tested on: OVCAR-3 ovarian
[36] = tested on: NCI-H522 lung
[37] = tested on: OVCAR-8 ovarian
[38] = tested on: NCI-H226 lung
[39] = tested on: 786-0 renal
[40] = tested on: MCF7 breast
[41] = tested on: RPMI-8226 leukemia
[42] = tested on: HS 578T breast
[43] = tested on: SNB-75 CNS
[44] = tested on: A549 NSCLC
[45] = tested on: UACC-62 melanoma
[46] = tested on: COLO 205 colon
[47] = tested on: U251 CNS
[48] = tested on: MDA-MB-231 breast
[49] = tested on: DU-145 prostate
[50] = tested on: MDA-MB-435
[51] = tested on: LOX IMVI melanoma
[52] = tested on: SR leukemia
[53] = tested on: NCI/ADR-RES ovarian
[54] = tested on: HT29 colon
[55] = tested on: IGROV1 ovarian
[56] = tested on: HCC-2998 colon
[57] = tested on: OVCAR-4 ovarian

Work on `N#Cc1c(N2CCOCC2)nc(=S)[nH]c1-c1ccco1` yielded a GI50 [1] of 5.52 µM, a TGI [1] of 52 µM and a GI50 [2] of 4.46 µM. For the same compound, the TGI [2] was greater than 100 µM, the GI50 [3] was 5.35 µM and the TGI [3] was 39.7 µM. The GI50 [4] was 24.7 µM, the TGI [4] was greater than 100 µM and the GI50 [5] was 1.79 µM. The TGI [5] was greater than 100 µM, the GI50 [6] was 5.99 µM and the TGI [6] was 78.7 µM. For the same compound, the GI50 [7] was 4.64 µM, the TGI [7] was 51.1 µM and the GI50 [8] was 6.34 µM. It also gave a TGI [8] of 69.9 µM, a GI50 [9] of 0.19 µM and a TGI [9] of 3.17 µM. The GI50 [10] was 3.15 µM, the TGI [10] was 18.1 µM and the GI50 [11] was 15.6 µM. It also gave a TGI [11] greater than 100 µM, a GI50 [12] of 6.2 µM and a TGI [12] greater than 100 µM. For the same compound, the GI50 [13] was 4.26 µM, the TGI [13] was greater than 100 µM and the GI50 [14] was 2.38 µM. It also gave a TGI [14] of 33.6 µM, a GI50 [15] of 10.4 µM and a TGI [15] greater than 100 µM. It also gave a GI50 [16] of 26 µM, a TGI [16] greater than 100 µM and a GI50 [17] of 12.1 µM. For the same compound, the TGI [17] was greater than 100 µM, the GI50 [18] was 2.18 µM and the TGI [18] was 8.18 µM. The GI50 [19] was 5.06 µM, the TGI [19] was greater than 100 µM and the GI50 [20] was 12.2 µM. It also gave a TGI [20] greater than 100 µM, a GI50 [21] of 2.72 µM and a TGI [21] of 14.7 µM. It also gave a GI50 [22] of 1.3 µM, a TGI [22] of 5.91 µM and a GI50 [23] of 10.9 µM. For the same compound, the TGI [23] was greater than 100 µM, the GI50 [24] was 12.9 µM and the TGI [24] was greater than 100 µM. For the same compound, the GI50 [25] was 1.19 µM, the TGI [25] was 7.23 µM and the GI50 [26] was 4.18 µM. For the same compound, the TGI [26] was 88.3 µM, the GI50 [27] was 23.5 µM and the TGI [27] was greater than 100 µM. It also gave a GI50 [28] of 8.45 µM, a TGI [28] greater than 100 µM and a GI50 [29] of 2.67 µM. It also gave a TGI [29] of 72.3 µM, a GI50 [30] of 4.4 µM and a TGI [30] greater than 100 µM. For the same compound, the GI50 [31] was 22.4 µM, the TGI [31] was greater than 100 µM and the GI50 [32] was 5.75 µM. It also gave a TGI [32] greater than 100 µM, a GI50 [33] of 3.77 µM and a TGI [33] of 62.4 µM. For the same compound, the GI50 [34] was 2.95 µM, the TGI [34] was 9.16 µM and the GI50 [35] was 7.93 µM. It also gave a TGI [35] of 49.8 µM, a GI50 [36] of 3.95 µM and a TGI [36] greater than 100 µM. It also gave a GI50 [37] of 18.3 µM, a TGI [37] greater than 100 µM and a GI50 [38] of 3.94 µM. The TGI [38] was 63.5 µM, the GI50 [39] was 6.2 µM and the TGI [39] was 80.8 µM. The GI50 [40] was 2.12 µM, the TGI [40] was greater than 100 µM and the GI50 [41] was 1.58 µM. It also gave a TGI [41] of 16.4 µM, a GI50 [42] of 2.08 µM and a TGI [42] of 17.3 µM. For the same compound, the GI50 [43] was 2.15 µM, the TGI [43] was 55.6 µM and the GI50 [44] was 14.9 µM. For the same compound, the TGI [44] was greater than 100 µM, the GI50 [45] was 2.91 µM and the TGI [45] was 32.7 µM. It also gave a GI50 [46] of 5.7 µM, a TGI [46] of 70.3 µM and a GI50 [47] of 20.2 µM. For the same compound, the TGI [47] was greater than 100 µM, the GI50 [48] was 4.63 µM and the TGI [48] was greater than 100 µM. The GI50 [49] was 10.2 µM, the TGI [49] was greater than 100 µM and the GI50 [50] was 15.9 µM. For the same compound, the TGI [50] was greater than 100 µM, the GI50 [51] was 6.68 µM and the TGI [51] was greater than 100 µM. The GI50 [52] was 2.8 µM, the TGI [52] was 51.7 µM and the GI50 [53] was 15.6 µM. It also gave a TGI [53] greater than 100 µM, a GI50 [54] of 9.56 µM and a TGI [54] greater than 100 µM. The GI50 [55] was 1.86 µM, the TGI [55] was 13 µM and the GI50 [56] was 25.5 µM. It also gave a TGI [56] greater than 100 µM, a GI50 [57] of 16.9 µM and a TGI [57] greater than 100 µM.

— PubChem BioAssay (NCI)
